Experimental data published in publication PMC10765126, “High-throughput computational screening and in vitro evaluation identifies 5-(4-oxo-4H-3,1-benzoxazin-2-yl)-2-[3-(4-oxo-4H-3,1-benzoxazin-2-yl) phenyl]-1H-isoindole-1,3(2H)-dione (C3), as a novel EGFR—HER2 dual inhibitor in gastric tumors” (Oncology Research, 2023).

What was measured:
EGFR = EGFR (Homo sapiens, UniProt P00533, L858R/T790M); test: luminescence kinase assay (Kinase-Glo Max, BPS Bioscience EGFR (T790M/L858R) kit, […] ATP); type: biochemical
HER2 = biological target: T1, HER2 (Homo sapiens, UniProt P04626); test: luminescence kinase assay (Kinase-Glo Max, BPS Bioscience HER2 kit, […] ATP); type: biochemical
T1 construct: gene ERBB2
T1 sequence (P04626 23-1255): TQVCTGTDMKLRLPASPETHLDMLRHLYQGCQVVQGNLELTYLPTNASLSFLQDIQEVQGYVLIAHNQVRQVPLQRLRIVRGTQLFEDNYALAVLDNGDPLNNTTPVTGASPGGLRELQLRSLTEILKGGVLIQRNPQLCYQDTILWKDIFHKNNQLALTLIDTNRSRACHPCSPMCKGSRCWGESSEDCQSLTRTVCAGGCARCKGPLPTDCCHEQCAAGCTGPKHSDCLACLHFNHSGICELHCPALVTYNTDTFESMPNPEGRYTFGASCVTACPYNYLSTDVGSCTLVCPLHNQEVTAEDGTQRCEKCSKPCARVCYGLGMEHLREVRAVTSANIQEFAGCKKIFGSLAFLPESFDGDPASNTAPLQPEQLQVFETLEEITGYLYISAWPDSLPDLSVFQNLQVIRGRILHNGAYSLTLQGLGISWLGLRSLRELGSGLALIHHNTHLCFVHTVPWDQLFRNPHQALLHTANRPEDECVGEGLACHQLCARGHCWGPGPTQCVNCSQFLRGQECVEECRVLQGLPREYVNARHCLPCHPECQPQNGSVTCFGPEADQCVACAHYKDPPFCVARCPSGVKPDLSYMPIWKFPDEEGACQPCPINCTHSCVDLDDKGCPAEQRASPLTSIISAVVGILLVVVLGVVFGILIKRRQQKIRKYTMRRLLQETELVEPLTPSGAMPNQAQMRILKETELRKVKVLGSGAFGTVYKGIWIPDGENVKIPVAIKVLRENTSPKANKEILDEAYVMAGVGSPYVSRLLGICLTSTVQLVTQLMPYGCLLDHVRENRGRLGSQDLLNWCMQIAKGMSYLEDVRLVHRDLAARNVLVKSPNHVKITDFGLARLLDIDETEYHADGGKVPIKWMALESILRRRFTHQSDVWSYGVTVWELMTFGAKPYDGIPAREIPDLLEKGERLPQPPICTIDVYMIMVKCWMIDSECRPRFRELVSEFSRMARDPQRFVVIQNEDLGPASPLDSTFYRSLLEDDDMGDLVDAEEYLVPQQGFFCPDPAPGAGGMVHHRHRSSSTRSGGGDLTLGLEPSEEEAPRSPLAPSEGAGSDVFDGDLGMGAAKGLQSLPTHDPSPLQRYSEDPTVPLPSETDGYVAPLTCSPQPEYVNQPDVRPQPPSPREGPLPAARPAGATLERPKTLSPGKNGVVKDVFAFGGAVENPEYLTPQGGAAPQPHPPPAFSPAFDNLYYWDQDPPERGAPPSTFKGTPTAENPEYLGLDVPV

EGFR, sequence (P00533 696-1210 T790M/L858R limits assumed): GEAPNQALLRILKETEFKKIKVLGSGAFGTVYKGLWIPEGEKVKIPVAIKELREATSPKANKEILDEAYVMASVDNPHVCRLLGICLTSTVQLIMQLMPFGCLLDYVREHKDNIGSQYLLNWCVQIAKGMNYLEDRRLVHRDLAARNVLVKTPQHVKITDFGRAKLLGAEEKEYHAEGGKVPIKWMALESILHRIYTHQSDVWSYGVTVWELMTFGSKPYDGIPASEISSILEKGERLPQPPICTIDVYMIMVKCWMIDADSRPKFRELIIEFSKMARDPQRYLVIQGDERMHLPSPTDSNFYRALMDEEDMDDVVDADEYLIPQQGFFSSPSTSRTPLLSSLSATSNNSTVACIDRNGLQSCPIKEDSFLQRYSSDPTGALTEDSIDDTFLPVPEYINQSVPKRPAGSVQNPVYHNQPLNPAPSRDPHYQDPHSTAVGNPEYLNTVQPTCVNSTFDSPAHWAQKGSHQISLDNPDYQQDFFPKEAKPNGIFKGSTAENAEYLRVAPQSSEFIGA

O=C1c2ccc(-c3nc4ccccc4c(=O)o3)cc2C(=O)N1c1cccc(-c2nc3ccccc3c(=O)o2)c1 [C3, 5-(4-oxo-4H-3,1-benzoxazin-2-yl)-2-[3-(4-oxo-4H-3,1-benzoxazin-2-yl)phenyl]-1H-isoindole-1,3(2H)-dione]
IC50 (EGFR): 37.2 nM | IC50 (HER2): 45.8 nM
